Results published in ChEMBL document CHEMBL2440076, “New triarylpyrazoles as broad-spectrum anticancer agents: design, synthesis, and biological evaluation” (Eur J Med Chem, 2013).

Tests used:
[1] = system: SF-268; assay: Growth inhibition of human SF268 cells after 48 hrs by sulforhodamine B assay; type: functional; settings: SF-268, 48 h; for CC50: read-out: LC50 (the source's name)
[2] = system: CCRF-CEM; assay: Growth inhibition of human CCRF-CEM cells assessed as cell growth at 5X10'-9 M after 48 hrs by sulforhodamine B assay; type: functional; settings: read-out: Activity
[3] = system: HOP-92; assay: Growth inhibition of human HOP92 cells assessed as cell growth at 5X10'-9 M after 48 hrs by sulforhodamine B assay; type: functional; settings: HOP-92, 48 h, read-out: Activity
[4] = system: SF-539; assay: Growth inhibition of human SF539 cells assessed as cell growth at 5X10'-5 M after 48 hrs by sulforhodamine B assay; type: functional; settings: SF-539, 48 h, read-out: Activity
[5] = system: HL-60(TB); assay: Growth inhibition of human HL-60(TB) cells assessed as cell growth at 5X10'-6 M after 48 hrs by sulforhodamine B assay; type: functional; settings: HL-60, 48 h, read-out: Activity
[6] = system: MDA-MB-231; assay: Growth inhibition of human MDA-MB-231 cells assessed as cell growth at 5X10'-7 M after 48 hrs by sulforhodamine B assay; type: functional; settings: MDA-MB-231, 48 h, read-out: Activity
[7] = system: KM12; assay: Growth inhibition of human KM12 cells assessed as cell growth at 5X10'-9 M after 48 hrs by sulforhodamine B assay; type: functional; settings: KM12, 48 h, read-out: Activity
[8] = system: MDA-MB-468; assay: Growth inhibition of human MDA-MB-468 cells after 48 hrs by sulforhodamine B assay; type: functional, cell-based; settings: MDA-MB-468, 48 h; for CC50: read-out: LC50 (the source's name)
[9] = system: SK-OV-3; assay: Growth inhibition of human SKOV3 cells assessed as cell growth at 5X10'-5 M after 48 hrs by sulforhodamine B assay; type: functional; settings: SK-OV-3, 48 h, read-out: Activity
[10] = system: HT-29; assay: Growth inhibition of human HT-29 cells assessed as cell growth at 5X10'-6 M after 48 hrs by sulforhodamine B assay; type: functional; settings: HT-29, 48 h, read-out: Activity
[11] = system: ACHN; assay: Growth inhibition of human ACHN cells assessed as cell growth at 5X10'-8 M after 48 hrs by sulforhodamine B assay; type: functional; settings: read-out: Activity
[12] = system: SN12C; assay: Growth inhibition of human SN12C cells assessed as cell growth at 5X10'-8 M after 48 hrs by sulforhodamine B assay; type: functional; settings: read-out: Activity
[13] = system: LOX IMVI; assay: Growth inhibition of human LOXIMVI cells assessed as cell growth at 5X10'-7 M after 48 hrs by sulforhodamine B assay; type: functional; settings: read-out: Activity
[14] = system: KM12; assay: Growth inhibition of human KM12 cells assessed as cell growth at 10 uM after 48 hrs by sulforhodamine B assay; type: functional; settings: KM12, 48 h, read-out: Activity
[15] = system: NCI-H226; assay: Growth inhibition of human NCI-H226 cells assessed as cell growth at 10 uM after 48 hrs by sulforhodamine B assay; type: functional; settings: NCI-H226, 48 h, read-out: Activity
[16] = system: OVCAR-4; assay: Growth inhibition of human OVCAR4 cells after 48 hrs by sulforhodamine B assay; type: functional; settings: OVCAR-4, 48 h
[17] = system: SNB-75; assay: Growth inhibition of human SNB75 cells after 48 hrs by sulforhodamine B assay; type: functional; settings: SNB-75, 48 h
[18] = system: SF-539; assay: Growth inhibition of human SF539 cells after 48 hrs by sulforhodamine B assay; type: functional; settings: SF-539, 48 h
[19] = system: UACC-62; assay: Growth inhibition of human UACC62 cells assessed as cell growth at 5X10'-6 M after 48 hrs by sulforhodamine B assay; type: functional; settings: UACC-62, 48 h, read-out: Activity
[20] = system: U-251; assay: Growth inhibition of human U251 cells after 48 hrs by sulforhodamine B assay; type: functional; settings: U-251, 48 h
[21] = system: OVCAR-3; assay: Growth inhibition of human OVCAR3 cells assessed as cell growth at 5X10'-9 M after 48 hrs by sulforhodamine B assay; type: functional; settings: OVCAR-3, 48 h, read-out: Activity
[22] = system: K562; assay: Growth inhibition of human K562 cells assessed as cell growth at 5X10'-9 M after 48 hrs by sulforhodamine B assay; type: functional; settings: K562, 48 h, read-out: Activity
[23] = system: OVCAR-3; assay: Growth inhibition of human OVCAR3 cells assessed as cell growth at 10 uM after 48 hrs by sulforhodamine B assay; type: functional; settings: OVCAR-3, 48 h, read-out: Activity
[24] = system: MDA-MB-468; assay: Growth inhibition of human MDA-MB-468 cells assessed as cell growth at 5X10'-7 M after 48 hrs by sulforhodamine B assay; type: functional; settings: MDA-MB-468, 48 h, read-out: Activity
[25] = system: SF-295; assay: Growth inhibition of human SF295 cells assessed as cell growth at 5X10'-6 M after 48 hrs by sulforhodamine B assay; type: functional; settings: SF-295, 48 h, read-out: Activity
[26] = system: HT-29; assay: Growth inhibition of human HT-29 cells assessed as cell growth at 5X10'-7 M after 48 hrs by sulforhodamine B assay; type: functional; settings: HT-29, 48 h, read-out: Activity
[27] = system: 786-0; assay: Growth inhibition of human 786-0 cells assessed as cell growth at 5X10'-5 M after 48 hrs by sulforhodamine B assay; type: functional; settings: 786-0, 48 h, read-out: Activity
[28] = system: SNB-75; assay: Growth inhibition of human SNB75 cells assessed as cell growth at 5X10'-9 M after 48 hrs by sulforhodamine B assay; type: functional; settings: SNB-75, 48 h, read-out: Activity
[29] = system: SK-MEL-2; assay: Growth inhibition of human SK-MEL-2 cells after 48 hrs by sulforhodamine B assay; type: functional; settings: SK-MEL-2, 48 h
[30] = system: HCT-116; assay: Growth inhibition of human HCT116 cells assessed as cell growth at 5X10'-7 M after 48 hrs by sulforhodamine B assay; type: functional; settings: HCT-116, 48 h, read-out: Activity
[31] = system: SK-MEL-5; assay: Growth inhibition of human SK-MEL-5 cells assessed as cell growth at 10 uM after 48 hrs by sulforhodamine B assay; type: functional; settings: SK-MEL-5, 48 h, read-out: Activity
[32] = system: SR; assay: Growth inhibition of human SR cells assessed as cell growth at 5X10'-8 M after 48 hrs by sulforhodamine B assay; type: functional; settings: read-out: Activity
[33] = system: SK-MEL-5; assay: Growth inhibition of human SK-MEL-5 cells assessed as cell growth at 5X10'-9 M after 48 hrs by sulforhodamine B assay; type: functional; settings: SK-MEL-5, 48 h, read-out: Activity
[34] = system: NCI-H522; assay: Growth inhibition of human NCI-H522 cells assessed as cell growth at 10 uM after 48 hrs by sulforhodamine B assay; type: functional; settings: NCI-H522, 48 h, read-out: Activity
[35] = system: K562; assay: Growth inhibition of human K562 cells assessed as cell growth at 5X10'-8 M after 48 hrs by sulforhodamine B assay; type: functional; settings: K562, 48 h, read-out: Activity
[36] = system: MDA-MB-231; assay: Growth inhibition of human MDA-MB-231 cells assessed as cell growth at 5X10'-9 M after 48 hrs by sulforhodamine B assay; type: functional; settings: MDA-MB-231, 48 h, read-out: Activity

## COc1cc(-c2nn(-c3cccc(NC(=O)Nc4cc(C(F)(F)F)cc(C(F)(F)F)c4)c3)cc2-c2ccncc2)ccc1Cl
[1]
  GI50: 978 nM
  TGI: 2430 nM
  CC50: > 50000 nM
[2]
  growth at 0.005 µM: 101%
[3]
  growth at 0.005 µM: 77%
[4]
  growth at 50 µM: -78%
[5]
  growth at 5 µM: 8%
[6]
  growth at 0.5 µM: 69%
[7]
  growth at 0.005 µM: 103%
[8]
  GI50: 307 nM
  IC50: 310 nM
  TGI: 1540 nM
  CC50: 24300 nM
[9]
  growth at 50 µM: -62%
[10]
  growth at 5 µM: -68%
[11]
  growth at 0.05 µM: 100%
[12]
  growth at 0.05 µM: 91%
[13]
  growth at 0.5 µM: 84%
[14]
  growth at 10 µM: -14.8%
[15]
  growth at 10 µM: 8.68%
[16]
  GI50: 1120 nM
  LC50 (concentration killing 50% of cells): > 50000 nM
  TGI: 9640 nM
[17]
  GI50: 858 nM
  LC50 (lethal concentration, 50% net cell kill): 5310 nM
  TGI: 2070 nM
[18]
  GI50: 829 nM
  LC50 (concentration killing 50% of cells): 3540 nM
  TGI: 1710 nM
[19]
  growth at 5 µM: -66%
[20]
  GI50: 590 nM
  LC50 (concentration killing 50% of cells): 3180 nM
  TGI: 1370 nM
[21]
  growth at 0.005 µM: 114%
[22]
  growth at 0.005 µM: 99%
[23]
  growth at 10 µM: -57.9%
[24]
  growth at 0.5 µM: 41%
[25]
  growth at 5 µM: -71%
[26]
  growth at 0.5 µM: 70%
[27]
  growth at 50 µM: -63%
[28]
  growth at 0.005 µM: 94%
[29]
  GI50: 1020 nM
  LC50 (50% lethal concentration): 3710 nM
  TGI: 1950 nM
[30]
  growth at 0.5 µM: 62%
[31]
  growth at 10 µM: -96.1%
[32]
  growth at 0.05 µM: 103%
[33]
  growth at 0.005 µM: 99%
[34]
  growth at 10 µM: -34.4%
[35]
  growth at 0.05 µM: 99%
[36]
  growth at 0.005 µM: 101%

## COc1cc(-c2nn(-c3cccc(NC(=O)c4cccc(C(F)(F)F)c4)c3)cc2-c2ccncc2)ccc1Cl
[1]
  GI50: 2130 nM
  TGI: > 50000 nM
  CC50: > 50000 nM
[2]
  growth at 0.005 µM: 100%
[3]
  growth at 0.005 µM: 90%
[4]
  growth at 50 µM: -23%
[5]
  growth at 5 µM: 16%
[6]
  growth at 0.5 µM: 77%
[7]
  growth at 0.005 µM: 100%
[8]
  GI50: 1320 nM
  IC50: 1320 nM
  TGI: 4560 nM
  CC50: > 50000 nM
[9]
  growth at 50 µM: 17%
[10]
  growth at 5 µM: 5%
[11]
  growth at 0.05 µM: 103%
[12]
  growth at 0.05 µM: 99%
[13]
  growth at 0.5 µM: 84%
[14]
  growth at 10 µM: 13.4%
[15]
  growth at 10 µM: 36.2%
[16]
  GI50: 2280 nM
  LC50 (concentration killing 50% of cells): > 50000 nM
  TGI: > 50000 nM
[17]
  GI50: 1130 nM
  LC50 (lethal concentration, 50% net cell kill): > 50000 nM
[18]
  GI50: 895 nM
  LC50 (concentration killing 50% of cells): > 50000 nM
  TGI: 2300 nM
[19]
  growth at 5 µM: 27%
[20]
  GI50: 1620 nM
  LC50 (concentration killing 50% of cells): > 50000 nM
  TGI: > 50000 nM
[21]
  growth at 0.005 µM: 105%
[22]
  growth at 0.005 µM: 94%
[23]
  growth at 10 µM: -25.6%
[24]
  growth at 0.5 µM: 89%
[25]
  growth at 5 µM: -24%
[26]
  growth at 0.5 µM: 86%
[27]
  growth at 50 µM: 3%
[28]
  growth at 0.005 µM: 90%
[29]
  GI50: 1560 nM
  LC50 (50% lethal concentration): > 50000 nM
  TGI: > 50000 nM
[30]
  growth at 0.5 µM: 92%
[31]
  growth at 10 µM: -33%
[32]
  growth at 0.05 µM: 98%
[33]
  growth at 0.005 µM: 98%
[34]
  growth at 10 µM: -42.3%
[35]
  growth at 0.05 µM: 94%
[36]
  growth at 0.005 µM: 102%
